This note sets out measurements from article PMC9067983, “Identification of highly selective type II kinase inhibitors with chiral peptidomimetic tails” (Journal of Enzyme Inhibition and Medicinal Chemistry, 2022).

For one experiment, the target named is T1, Abl1 (Homo sapiens, UniProt P00519).
T1 construct: purchased Reaction Biology Corp
As to the kind of experiment: In vitro kinase assay (IC50). Format: biochemical. Here is the method:
(§1) Full panel kinase profiling and kinase IC50 measurement were performed by using Reaction Biology Corp. (San Diego, USA).

Another experiment has as its target T2, BMX/ETK (Homo sapiens, UniProt P51813).
T2 construct: purchased Reaction Biology Corp
As to the kind of experiment: In vitro kinase assay (IC50). Format: biochemical. The procedure: as §1

A further experiment has as its target T3, Blk (Homo sapiens, UniProt P51451).
T3 construct: purchased Reaction Biology Corp
As to the kind of experiment: In vitro kinase assay (IC50). Format: biochemical. Here is the method:
as §1

The target in another experiment is T4, DDR1 (Homo sapiens, UniProt Q08345).
T4 construct: purchased Reaction Biology Corp
As to the kind of experiment: In vitro kinase assay (IC50). Format: biochemical. The procedure: as §1

The target in a further experiment is T5, Fgr (Homo sapiens, UniProt P09769).
T5 construct: purchased Reaction Biology Corp
As to the kind of experiment: In vitro kinase assay (IC50). Format: biochemical. The procedure:
as §1

Another experiment concerns the target T6, Lck (Homo sapiens, UniProt P06239).
T6 construct: purchased Reaction Biology Corp
As to the kind of experiment: In vitro kinase assay (IC50). Format: biochemical. The procedure:
as §1

For a further experiment, the target named is T7, Lyn (Homo sapiens, UniProt P07948).
T7 construct: purchased Reaction Biology Corp
As to the kind of experiment: In vitro kinase assay (IC50). Format: biochemical. The procedure:
as §1

The target in the next experiment is T8, Yes (Homo sapiens, UniProt P07947).
T8 construct: purchased Reaction Biology Corp
As to the kind of experiment: In vitro kinase assay (IC50). Format: biochemical. Here is the method:
as §1

The next experiment deals with T9, c-Src (Homo sapiens, UniProt P12931).
T9 construct: purchased Reaction Biology Corp
As to the kind of experiment: In vitro kinase assay (IC50). Format: biochemical. Here is the method:
as §1

The next experiment addresses T10, p38a (Homo sapiens, UniProt Q16539).
T10 construct: purchased Reaction Biology Corp
As to the kind of experiment: In vitro kinase assay (IC50). Format: biochemical. The procedure: as §1

A further experiment concerns DSS-induced colitis mice. As to the kind of experiment: DSS-induced colitis model. The settings on record: 5 mg/kg, i.p., daily for 7 days, 4% DSS, day 7. Format: in vivo. Here is the method:
Male C57BL/6 mice (21 ± 2 g; 6 weeks) were obtained from Oriental Bio Inc. (Seongnam-si, Korea). All mice were bred under constant conditions (temperature: 22 ± 2 °C, humidity: 40–60%, light/dark cycle: 12 h). All animal experiments were conducted under the university guidelines of the ethical committee for Animal Care and Use of the Kyung Hee University (KHSASP-22–002).
Colitis in mice was induced by providing water containing 4% (w/v) DSS for 7 days. Mice were randomly divided into 5 groups (n = 6/group, Figure 8) as follows: control group treated with vehicle; DSS plus vehicle group exposed to 4% DSS and treated with vehicle; the other 3 groups consist of mice receiving 4% DSS was treated with 5-ASA (75 mg/kg/day, p.o.) as a positive control or 7a (1, 5 mg/kg/day, i.p.) daily for 7 days.
To calculate the severity of colitis, body weight, stool consistency, and occult/gross bleeding of all mice were assessed. DAI score was measured every day according to the following table (Table 5). The colon length was measured at end of the experiment.

A further experiment addresses T11, ALK6/BMPR1B (Homo sapiens, UniProt O00238).
T11 construct: purchased Reaction Biology Corp
As to the kind of experiment: kinase selectivity profiling. Format: biochemical. The settings on record: 10µM ATP, read-out: % inhibition (relative to DMSO). Here is the method: as §1

Another experiment has as its target T12, CDK8/cyclin C (Homo sapiens, UniProt P49336).
T12 construct: purchased Reaction Biology Corp
As to the kind of experiment: kinase selectivity profiling. Format: biochemical. The settings on record: 10µM ATP, read-out: % inhibition (relative to DMSO). Here is the method: as §1

In the next experiment the target is T13, STK32B/YANK2 (Homo sapiens, UniProt Q9NY57).
T13 construct: purchased Reaction Biology Corp
As to the kind of experiment: kinase selectivity profiling. Format: biochemical. The settings on record: 10µM ATP, read-out: % inhibition (relative to DMSO). Here is the method: as §1

Where a SMILES comes first, the peptide text is derived from it. [ ]: non-standard residue; d: D form. The star is where a group is joined. X1 = Cc1ccc(Nc2ncc3c(n2)N(C)C(=O)N(c2cc(C(=O)*)ccc2C)C3)cn1; Aib = CC(C)(N)C(=O)O Bounds are passed on as bounds.

T6 sequence (P06239 whole entry): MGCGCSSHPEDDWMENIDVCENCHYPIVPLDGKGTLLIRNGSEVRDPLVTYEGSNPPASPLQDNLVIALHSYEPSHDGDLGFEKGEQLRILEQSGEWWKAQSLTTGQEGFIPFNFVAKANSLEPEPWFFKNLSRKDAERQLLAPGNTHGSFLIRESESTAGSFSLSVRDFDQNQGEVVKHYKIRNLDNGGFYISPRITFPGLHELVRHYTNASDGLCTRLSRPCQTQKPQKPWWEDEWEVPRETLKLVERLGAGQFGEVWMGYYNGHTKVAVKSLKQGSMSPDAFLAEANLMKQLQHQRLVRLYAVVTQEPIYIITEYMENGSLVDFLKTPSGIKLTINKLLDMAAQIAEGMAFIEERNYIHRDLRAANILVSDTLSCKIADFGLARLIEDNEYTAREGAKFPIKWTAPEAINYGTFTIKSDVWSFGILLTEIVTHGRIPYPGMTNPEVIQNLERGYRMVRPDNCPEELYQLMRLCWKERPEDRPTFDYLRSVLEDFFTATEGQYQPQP
T13 sequence (Q9NY57 whole entry): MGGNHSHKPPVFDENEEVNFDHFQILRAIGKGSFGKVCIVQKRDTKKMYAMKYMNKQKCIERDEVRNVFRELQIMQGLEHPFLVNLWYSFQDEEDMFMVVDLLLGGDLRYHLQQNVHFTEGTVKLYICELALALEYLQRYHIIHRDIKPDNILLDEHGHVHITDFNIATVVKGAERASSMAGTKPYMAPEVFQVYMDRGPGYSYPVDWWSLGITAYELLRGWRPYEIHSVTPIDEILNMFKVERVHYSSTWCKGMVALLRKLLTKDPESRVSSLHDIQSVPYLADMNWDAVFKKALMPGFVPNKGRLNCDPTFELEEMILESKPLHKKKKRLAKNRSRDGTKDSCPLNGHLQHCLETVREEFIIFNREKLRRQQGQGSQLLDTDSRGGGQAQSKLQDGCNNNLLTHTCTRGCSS
T9 sequence (P12931 whole entry): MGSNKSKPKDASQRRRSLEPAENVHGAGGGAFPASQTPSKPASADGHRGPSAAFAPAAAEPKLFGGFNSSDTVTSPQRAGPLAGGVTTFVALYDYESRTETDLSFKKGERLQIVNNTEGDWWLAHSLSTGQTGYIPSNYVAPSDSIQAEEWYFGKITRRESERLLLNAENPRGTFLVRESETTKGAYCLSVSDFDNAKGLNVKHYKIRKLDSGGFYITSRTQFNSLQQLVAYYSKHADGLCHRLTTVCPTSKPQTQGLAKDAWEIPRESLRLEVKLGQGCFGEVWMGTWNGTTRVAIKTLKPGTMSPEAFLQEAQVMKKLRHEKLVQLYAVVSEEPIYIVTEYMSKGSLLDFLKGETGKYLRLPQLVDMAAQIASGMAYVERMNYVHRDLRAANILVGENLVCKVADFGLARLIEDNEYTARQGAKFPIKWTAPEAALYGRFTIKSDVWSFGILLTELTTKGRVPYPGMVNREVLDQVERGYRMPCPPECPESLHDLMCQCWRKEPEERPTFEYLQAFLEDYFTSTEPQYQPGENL
T7 sequence (P07948 whole entry): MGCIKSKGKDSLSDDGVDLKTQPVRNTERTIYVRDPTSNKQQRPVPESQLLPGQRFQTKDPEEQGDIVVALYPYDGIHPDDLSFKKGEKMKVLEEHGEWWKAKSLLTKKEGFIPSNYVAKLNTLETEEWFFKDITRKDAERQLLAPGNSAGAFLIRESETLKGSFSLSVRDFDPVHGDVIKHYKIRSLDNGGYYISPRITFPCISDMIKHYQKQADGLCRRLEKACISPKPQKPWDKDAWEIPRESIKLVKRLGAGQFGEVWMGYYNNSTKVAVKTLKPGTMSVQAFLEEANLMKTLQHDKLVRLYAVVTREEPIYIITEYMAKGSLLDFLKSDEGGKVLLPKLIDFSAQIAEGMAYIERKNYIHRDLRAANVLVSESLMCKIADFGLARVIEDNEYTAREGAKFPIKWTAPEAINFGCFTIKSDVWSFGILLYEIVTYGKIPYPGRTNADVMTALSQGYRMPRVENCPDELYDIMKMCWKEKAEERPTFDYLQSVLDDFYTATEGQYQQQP
T5 sequence (P09769 whole entry): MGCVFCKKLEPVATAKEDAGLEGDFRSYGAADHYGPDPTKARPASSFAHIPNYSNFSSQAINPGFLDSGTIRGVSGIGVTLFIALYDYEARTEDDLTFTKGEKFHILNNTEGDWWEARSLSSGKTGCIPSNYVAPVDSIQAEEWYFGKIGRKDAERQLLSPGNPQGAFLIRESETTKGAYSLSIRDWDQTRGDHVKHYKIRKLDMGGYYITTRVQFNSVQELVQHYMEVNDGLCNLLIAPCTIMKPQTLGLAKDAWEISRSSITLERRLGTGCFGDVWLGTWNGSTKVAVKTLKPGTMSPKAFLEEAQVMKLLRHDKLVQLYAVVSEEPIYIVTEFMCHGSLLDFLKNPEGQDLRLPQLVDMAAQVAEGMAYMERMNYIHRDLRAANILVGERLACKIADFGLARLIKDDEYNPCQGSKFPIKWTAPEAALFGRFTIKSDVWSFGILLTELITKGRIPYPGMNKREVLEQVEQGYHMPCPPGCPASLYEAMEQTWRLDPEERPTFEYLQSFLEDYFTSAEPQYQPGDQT
T4 sequence (Q08345 19-913): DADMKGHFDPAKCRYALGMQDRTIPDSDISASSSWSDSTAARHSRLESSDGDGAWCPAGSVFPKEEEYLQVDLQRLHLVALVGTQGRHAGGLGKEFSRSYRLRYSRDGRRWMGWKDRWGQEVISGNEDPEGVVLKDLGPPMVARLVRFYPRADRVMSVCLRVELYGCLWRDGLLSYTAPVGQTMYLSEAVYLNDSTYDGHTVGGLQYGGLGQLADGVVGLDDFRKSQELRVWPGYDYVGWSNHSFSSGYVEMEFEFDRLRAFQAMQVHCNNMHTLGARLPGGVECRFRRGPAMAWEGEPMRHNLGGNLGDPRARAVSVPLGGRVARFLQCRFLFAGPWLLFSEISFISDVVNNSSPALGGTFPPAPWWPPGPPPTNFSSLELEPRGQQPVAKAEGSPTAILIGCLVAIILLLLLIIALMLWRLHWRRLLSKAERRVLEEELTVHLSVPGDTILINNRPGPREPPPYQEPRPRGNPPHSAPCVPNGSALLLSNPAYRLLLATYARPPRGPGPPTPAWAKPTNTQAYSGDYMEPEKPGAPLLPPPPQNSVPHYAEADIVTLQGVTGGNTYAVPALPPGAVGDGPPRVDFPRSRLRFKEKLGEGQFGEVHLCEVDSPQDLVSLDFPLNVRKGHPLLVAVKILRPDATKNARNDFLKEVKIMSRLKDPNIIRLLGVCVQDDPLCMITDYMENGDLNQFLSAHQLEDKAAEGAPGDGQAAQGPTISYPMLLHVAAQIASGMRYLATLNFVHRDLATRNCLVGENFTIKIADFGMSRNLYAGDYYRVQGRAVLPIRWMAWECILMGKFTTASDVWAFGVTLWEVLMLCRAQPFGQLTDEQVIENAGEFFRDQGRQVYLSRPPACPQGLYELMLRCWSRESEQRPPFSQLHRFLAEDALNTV
T2 sequence (P51813 whole entry): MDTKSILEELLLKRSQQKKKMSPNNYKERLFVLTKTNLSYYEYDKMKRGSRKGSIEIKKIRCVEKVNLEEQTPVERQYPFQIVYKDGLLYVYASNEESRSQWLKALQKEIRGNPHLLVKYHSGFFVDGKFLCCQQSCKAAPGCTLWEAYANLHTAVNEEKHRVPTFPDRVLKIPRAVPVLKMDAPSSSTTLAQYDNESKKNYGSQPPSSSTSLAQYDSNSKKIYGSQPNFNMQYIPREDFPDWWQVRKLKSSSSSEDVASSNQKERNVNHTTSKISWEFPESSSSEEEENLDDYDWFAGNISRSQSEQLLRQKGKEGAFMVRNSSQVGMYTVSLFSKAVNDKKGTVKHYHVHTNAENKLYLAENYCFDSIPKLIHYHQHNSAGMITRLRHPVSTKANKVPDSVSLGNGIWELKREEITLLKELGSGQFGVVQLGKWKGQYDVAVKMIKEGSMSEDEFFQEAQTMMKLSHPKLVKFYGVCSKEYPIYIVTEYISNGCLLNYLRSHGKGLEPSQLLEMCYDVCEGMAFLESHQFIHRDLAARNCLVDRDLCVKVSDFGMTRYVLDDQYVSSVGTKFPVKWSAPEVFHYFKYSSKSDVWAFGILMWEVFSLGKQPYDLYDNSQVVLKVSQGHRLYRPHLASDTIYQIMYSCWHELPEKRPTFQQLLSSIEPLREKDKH
T8 sequence (P07947 whole entry): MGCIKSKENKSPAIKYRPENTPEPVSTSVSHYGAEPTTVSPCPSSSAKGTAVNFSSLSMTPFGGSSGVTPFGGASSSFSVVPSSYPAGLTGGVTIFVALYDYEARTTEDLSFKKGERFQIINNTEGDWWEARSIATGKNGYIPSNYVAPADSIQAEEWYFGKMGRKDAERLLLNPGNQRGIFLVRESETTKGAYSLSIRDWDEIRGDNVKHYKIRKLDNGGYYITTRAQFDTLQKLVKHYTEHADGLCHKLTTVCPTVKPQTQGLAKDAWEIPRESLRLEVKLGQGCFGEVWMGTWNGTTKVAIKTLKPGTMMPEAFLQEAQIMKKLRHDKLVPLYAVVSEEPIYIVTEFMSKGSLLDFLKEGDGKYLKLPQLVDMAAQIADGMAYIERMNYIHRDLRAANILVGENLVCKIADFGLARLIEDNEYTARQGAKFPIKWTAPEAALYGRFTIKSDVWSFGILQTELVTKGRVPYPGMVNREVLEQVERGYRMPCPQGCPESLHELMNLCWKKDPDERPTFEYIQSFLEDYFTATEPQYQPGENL
T10 sequence (Q16539 whole entry): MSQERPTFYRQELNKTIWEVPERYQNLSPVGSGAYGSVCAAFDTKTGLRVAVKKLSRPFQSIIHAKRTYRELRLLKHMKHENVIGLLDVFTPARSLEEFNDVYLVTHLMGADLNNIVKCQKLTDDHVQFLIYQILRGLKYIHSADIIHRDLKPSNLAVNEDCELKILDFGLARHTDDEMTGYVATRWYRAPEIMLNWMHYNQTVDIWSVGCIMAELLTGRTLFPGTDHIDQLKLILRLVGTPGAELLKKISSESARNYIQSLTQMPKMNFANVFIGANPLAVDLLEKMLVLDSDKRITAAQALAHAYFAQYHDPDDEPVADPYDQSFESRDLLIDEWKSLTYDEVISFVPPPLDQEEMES

By IC50 is commonly meant the concentration that gives 50% inhibition. Lower therefore signals greater potency. By inhibition is commonly meant the relative decrease from the control value, in per cent. On to `Cc1ccc(Nc2ncc3c(n2)N(C)C(=O)N(c2cc(C(=O)N[C@H](C(=O)N4CCC[C@H]4C(=O)NC(C)(C)C(=O)N[C@@H](CC(C)C)C(=O)N(C)C)C(C)C)ccc2C)C3)cn1` [7a, (S)-N-(1-(((S)-1-(dimethylamino)-4-methyl-1-oxopentan-2-yl)amino)-2-methyl-1-oxopropan-2-yl)-1-((4-methyl-3-(1-methyl-7-((6-methylpyridin-3-yl)amino)-2-oxo-1,4-dihydropyrimido[4,5-d]pyrimidin-3(2H)-yl)benzoyl)-L-valyl)pyrrolidine-2-carboxamide] (X1-VP[Aib]L-NMe2), for which the IC50 against Abl1 was 378 nM; against BMX/ETK it was 293 nM; at Blk it was 253 nM; on DDR1 it was 110 nM; against Fgr, 201 nM; at Lck, 23 nM. Also, the IC50 is 671 nM against Lyn, 495 nM against Yes, 861 nM against c-Src and above 10000 nM on p38a. Besides, the “selectivity for Lck over c-Src” value on Lck is listed as “over 10 fold”. Further, the “Lck selectivity over c-Src (c-Src IC50 / Lck IC50)” value at Lck (Table 2) was determined as 37. Besides, in the experiment on DSS-induced colitis mice, the “disease activity index (DAI) symptom changes” value is on record as “improved the symptom changes at the end of experiments”. Moreover, in the experiment with DSS-induced colitis mice (mean ± SE, n = 6), the colon length is 5.47 ± 0.60 cm. Also, the inhibition at 1 µM on ALK6/BMPR1B came to 16%; on CDK8/cyclin C it was 2%; at STK32B/YANK2 it was 16%.
